From patent US8067445B2, “N,N-disubstituted aminoalkylbiphenyl antagonists of prostaglandin D2 receptors” (Panmira Pharmaceuticals, LLC, priority 2008, dated 2011)

Experiments:
human DP1 receptor = target: T1, human DP1 receptor (Homo sapiens, UniProt Q13258); assay: DP1 radioligand binding assay ([3H]BWA868C, platelet membranes); conditions: [3H]BWA868C binding, human platelet membranes; read-out: hDP1
T1 construct: tissue Biological Specialty Corporation; host or cells: human platelet membranes
T1 sequence (Q13258 1-359): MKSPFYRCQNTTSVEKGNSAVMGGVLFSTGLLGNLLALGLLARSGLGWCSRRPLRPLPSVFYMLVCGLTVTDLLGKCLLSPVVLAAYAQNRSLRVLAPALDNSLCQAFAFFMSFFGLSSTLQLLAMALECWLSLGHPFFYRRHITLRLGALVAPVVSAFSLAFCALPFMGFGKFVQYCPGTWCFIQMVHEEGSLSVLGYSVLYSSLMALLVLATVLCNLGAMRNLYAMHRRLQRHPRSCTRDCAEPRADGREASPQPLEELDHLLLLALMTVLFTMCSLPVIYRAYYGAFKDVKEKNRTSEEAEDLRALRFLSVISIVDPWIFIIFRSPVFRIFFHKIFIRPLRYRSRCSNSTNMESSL
How it was run: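 Human platelet membranes (20 μg protein/well) incubated 60 min at room temperature with 2 nM [3H]BWA868C and compound in 50 mM Hepes, 10 mM MnCl2, 1 mM EDTA, pH 7.4, ± 0.2% human serum albumin. Bound radioactivity measured after filtration; nonspecific binding defined with 10 μM BWA868C; IC50 from titration curves.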

human DP2 receptor = target: T2, human DP2 receptor (Homo sapiens, UniProt Q9Y5Y4); assay: DP2/CRTH2 radioligand binding assay ([3H]PGD2); conditions: [3H]PGD2 binding, membranes of HEK293 cells expressing human DP2; read-out: hDP2
T2 construct: expressed in transfected cells
T2 sequence (Q9Y5Y4 1-395): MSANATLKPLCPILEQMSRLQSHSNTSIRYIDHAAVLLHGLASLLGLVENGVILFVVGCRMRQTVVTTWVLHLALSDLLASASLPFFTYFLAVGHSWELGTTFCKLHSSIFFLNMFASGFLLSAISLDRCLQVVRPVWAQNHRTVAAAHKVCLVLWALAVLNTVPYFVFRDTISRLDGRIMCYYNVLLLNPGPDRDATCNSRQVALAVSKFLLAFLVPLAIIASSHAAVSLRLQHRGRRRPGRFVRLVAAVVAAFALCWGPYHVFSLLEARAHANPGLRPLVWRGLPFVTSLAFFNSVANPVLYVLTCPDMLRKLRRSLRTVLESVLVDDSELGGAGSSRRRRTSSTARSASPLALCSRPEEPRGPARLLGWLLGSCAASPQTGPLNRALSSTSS
How it was run: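 Membranes from HEK293 cells stably expressing recombinant human DP2 incubated 60 min at room temperature with 1 nM [3H]PGD2 and compound in pH 7.4 Hepes/MnCl2/EDTA buffer, ± 0.2% human serum albumin. Bound radioactivity measured after filtration; non-specific binding defined with 10 μM PGD2. IC50 from titration curves.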

IC50 (human DP1 receptor) [nM]	IC50 (human DP2 receptor) [nM]	Structure (SMILES)
1000 to 30000	1000 to 30000	COc1ccc(CC(=O)O)cc1-c1ccc(C(F)(F)F)cc1CN(C(C)=O)[C@@H](C)[C@H](O)c1ccccc1 [Compound 1-104, (2′-{[Acetyl-((1S,2R)-2-hydroxy-1-methyl-2-phenyl-ethyl)-amino]-methyl}-6-methoxy-4′-trifluoromethyl-biphenyl-3-yl)-acetic acid]
1000 to 30000	< 300	CCN(Cc1ccc(C(F)(F)F)cc1-c1cc(CC(=O)O)ccc1OC)C(=O)NCc1ccccc1 [Compound 1-172, [2′-(3-Benzyl-1-ethyl-ureidomethyl)-6-methoxy-5′-trifluoromethyl-biphenyl-3-yl]-acetic acid]
1000 to 30000	> 30000	CCN(Cc1cc(C(F)(F)F)ccc1-c1cc(CC#N)ccc1OC)C(=O)OCc1ccccc1 [Compound 2-4, (5′-Cyanomethyl-2′-methoxy-4-trifluoromethyl-biphenyl-2-ylmethyl)-ethyl-carbamic acid benzyl ester]
1000 to 30000	< 300	CCN(Cc1cc(C(F)(F)F)ccc1-c1cc(CC(=O)O)cc(C(F)(F)F)c1)C(=O)NCc1ccccc1 [Compound 1-158, [2′-(3-Benzyl-1-ethyl-ureidomethyl)-5,4′-bis-trifluoromethyl-biphenyl-3-yl]-acetic acid]
300 to 1000	< 300	CCN(Cc1ccc(C)cc1-c1cc(CC(=O)O)ccc1OC)C(=O)OCc1ccc(Cl)cc1 [Compound 1-175, (2′-{[(4-Chloro-benzyloxycarbonyl)-ethyl-amino]-methyl}-6-methoxy-5′-methyl-biphenyl-3-yl)-acetic acid]
300 to 1000	300 to 1000	CCN(Cc1cc(C(F)(F)F)ccc1-c1ccc(C(F)(F)F)c(CC(=O)O)c1)C(=O)OCc1ccccc1 [Compound 1-124, {2′-[(Benzyloxycarbonyl-ethyl-amino)-methyl]-4,4′-bis-trifluoromethyl-biphenyl-3-yl}-acetic acid]

The remaining lines, values behind:

Structure (SMILES)	IC50 (human DP1 receptor) [nM]	IC50 (human DP2 receptor) [nM]
CCN(Cc1cc(C(F)(F)F)ccc1-c1cc(CC(=O)O)ccc1OC)C(=O)Cn1cncn1 [Compound 1-150, (2′-{[Ethyl-(2-[1,2,4]triazol-1-yl-acetyl)-amino]-methyl}-6-methoxy-4′-trifluoromethyl-biphenyl-3-yl)-acetic acid]	1000 to 30000	300 to 1000
COc1ccc(CC(=O)O)cc1-c1ccc(C(F)(F)F)cc1CN(CCc1ccccc1)S(C)(=O)=O [Compound 1-101, {2′-[(Methanesulfonyl-phenethyl-amino)-methyl]-6-methoxy-4′-trifluoromethyl-biphenyl-3-yl}-acetic acid]	1000 to 30000	1000 to 30000
CCN(Cc1cc(C(F)(F)F)ccc1-c1cc(CC(=O)O)cc(C(F)(F)F)c1)C(=O)OC [Compound 1-163, {2′-[(Ethyl-methoxycarbonyl-amino)-methyl]-5,4′-bis-trifluoromethyl-biphenyl-3-yl}-acetic acid]	1000 to 30000	< 300
CCN(Cc1cc(C(F)(F)F)ccc1-c1cc(C(C)(C)C(=O)O)ccc1OC)C(C)=O [Compound 1-115, 2-{2′-[(Acetyl-ethyl-amino)-methyl]-6-methoxy-4′-trifluoromethyl-biphenyl-3-yl}-2-methyl-propionic acid]	1000 to 30000	> 30000
CCN(Cc1cc(C(F)(F)F)ccc1-c1cc(Cl)cc(CC(=O)O)c1)C(=O)OC [Compound 1-164, {5-Chloro-2′-[(ethyl-methoxycarbonyl-amino)-methyl]-4′-trifluoromethyl-biphenyl-3-yl}-acetic acid]	1000 to 30000	< 300
